Values after ≈ are worked out from the molar mass of the structure shown.
Experiments:
[1] = Human microsomal stability; format: in vitro ADME; conditions: for microsomal stability % remanent: Human, sampling time 60 min; for microsomal CLint / half-life: human, liver microsomes, pH 7.4; for half-life: read-out: microsomal stability t1/2
Protocol: The human microsomal stability of selected compounds was evaluated by following a previously described method. The human microsomes employed were purchased from Tebu-Xenotech. The compound was incubated with the microsomes at 37 °C in a 50 mM phosphate buffer (pH = 7.4) containing 3 mM MgCl2, 1 mM NADP, 10 mM glucose-6-phosphate and 1 U/mL glucose-6-phosphate-dehydrogenase. Samples (75 μL) were taken from each well at 0, 10, 20, 40, and 60 min and transferred to a plate containing 4 °C 75 μL acetonitrile and 30 μL of 0.5% formic acid in water were added for improving the chromatographic conditions. The plate was centrifuged ([…], 30 min) and supernatants were taken and analyzed in an UPLC-MS/MS (Xevo-TQD, Waters) by employing a BEH C18 column and an isocratic gradient of 0.1% formic acid in water: 0.1% formic acid acetonitrile (60:40). The metabolic stability of the compounds was calculated from the logarithm of the remaining compounds at each of the time point studied.

[2] = Mouse microsomal stability; format: in vitro ADME; conditions: for microsomal stability % remanent: Mouse, sampling time 60 min; for microsomal CLint / half-life: mouse, microsomes, pH 7.4; for half-life: read-out: microsomal stability t1/2
[3] = test system: SH-SY5Y cells; assay: Neurite length in differentiated SH-SY5Y cells transfected with MAPT P301L + APP V717I; format: cell-based, human; conditions: for neuroprotective effect in presence of CB2R antagonist SR144528: 100 and 10 nM, SR144528 1 μM
Source text: Finally, to further validate these effects, a neuron-like in vitro model using differentiated SH-SY5Y cells was employed (Figure ). […] To simulate neurodegenerative conditions, cells were transiently transfected with expression plasmids encoding the MAPT P301L and APP V717I mutations. The MAPT P301L mutation promotes pathological tau hyperphosphorylation and aggregation, leading to microtubule destabilization, impaired axonal transport, and neurite retraction. , Meanwhile, the APP V717I mutation increases the production of long, aggregation-prone amyloidogenic peptides, disrupting cellular homeostasis through oxidative stress and cytoskeletal disorganization. ,
SH-SY5Y human neuroblastoma-derived cells (ECACC, 94030304) were cultured and differentiated in black 384-well plates (Revvity, 6057300). Plates were treated with laminin (1:500 dilution in PBS; Merck, L2020) by adding 25 μL per well and incubated for 2 h at room temperature. Subsequently, plates were washed three times with PBS. Cells were seeded at a density of 6.6 × 10^3 cells per well (in 50 μL) in culture medium. The base culture medium consisted of RPMI-1640 (Gibco, 61870) supplemented with 2% (v/v) fetal bovine serum (FBS; Merck, F7524), 1% (v/v) penicillin-streptomycin (P/S; Merck, P0781), and 0.1% (v/v) gentamicin (Merck, G1397).
Differentiation was initiated 24 h after plating. The culture medium was replaced with a differentiation medium composed of RPMI-1640 supplemented with 2% (v/v) FBS, 1% (v/v) P/S, 0.1% (v/v) gentamicin, and 10 μM all-trans retinoic acid (RA; Merck, R2625). Medium changes were performed every 3 days, and the plates were kept covered with aluminum foil to protect retinoic acid from light exposure. Six days later, cells were transfected with expression plasmids encoding MAPT P301L and APP V717I mutations employing Lipofectamine LTX (Thermo Fisher, 15338100) at a 1:2 proportion in Opti-MEM (Gibco, 11058-021) following the instructions of the manufacturer. After 6 h, the transfection medium was replaced with a differentiation medium composed of RPMI-1640, B27 supplement (1:50; Gibco, 17504), 1% (v/v) P/S, 0.1% (v/v) gentamicin, and 100 nM GLP-1 (Merck, G9416). 24 h later, test compounds were added using an Echo 650T acoustic dispenser (Labcyte) from a 10 mM stock solution in DMSO (Merck, D8418).
48 h after compound dispensation, cells were fixed with 4% paraformaldehyde (50 μL per well, Santa Cruz BT, sc-281692) for 20 min at 4 °C. Wells were then washed twice with HBSS (50 μL per wash, Merck, H8264) and incubated with 50 μL of blocking buffer for 30 min at room temperature. The blocking buffer consisted of HBSS supplemented with 5% BSA (w/v) (Merck, 10775835001) and 0.1% (v/v) Triton X-100 (Merck, T8787). After blocking, cells were incubated with an antibeta-tubulin antibody conjugated to Alexa Fluor 488 (1:500; BD Biosciences, 558605) and Draq5 nuclear stain (2.5 μM; Abcam, ab108410) diluted in blocking buffer. After incubation in the dark at room temperature, wells were washed once with 50 μL of HBSS and subsequently filled with 50 μL of blocking buffer prior to imaging.Images were acquired using an Operetta CLS High Content Screening System (Revvity) equipped with a 20× water-immersion objective. Fluorescent signals were detected using specific excitation/emission filter settings for each fluorophore: Alexa Fluor 488 (λex = 460–490 nm; λem = 500–550 nm) and Draq5 (λex = 615–645 nm; λem = 655–760 nm). For each well, nine nonoverlapping fields were captured under identical acquisition settings. Neurite length and complexity were quantified using Harmony software (version 4.9.2137.273; Revvity), applying a predefined analysis algorithm optimized for β-tubulin immunostaining. For each experiment, data were normalized to the average neurite length measured in the double-transfected condition (MAPT P301L + APP V717I) treated with vehicle, which was assigned a reference value of 100%. […]

[4] = Kinetic solubility (nephelometry); format: physicochemical; conditions: 37 °C, aqueous buffer, kinetic from dmso stock; 1:99 DMSO/PSB buffer; PBS pH 7
Protocol: The solubility of selected compounds was evaluated by following a previously described method. A 10 mM stock solution of the compound was serially diluted in 100% DMSO and 2.5 μL of this solution was added to a 384-well UV-transparent plate (Greiner) containing 47.5 μL of PBS (pH = 7). The plate was incubated at 37 °C for 4 h and the light scattering was measured in a Nephelostar plus reader (BMG LABTECH). The data was fitted to a segmented linear regression for measuring the compound solubility.

[5] = molecular target: CB1R (Homo sapiens, UniProt P21554); assay: CB1R Gi protein-mediated cAMP inhibition assay; format: cell-based; conditions: for functional selectivity ratio: CB1R vs CB2R cAMP EC50
Source text: Given their excellent CB2R functional activity and ability to cross the blood–brain barrier, compounds 18p and 18o were selected for CB1R functional evaluation to assess potential risks of CB1R-mediated central effects. […] Full CB1R dose–response curves are provided in the Supporting Information (Figure S6).

Chain of CB1R (P21554 whole entry): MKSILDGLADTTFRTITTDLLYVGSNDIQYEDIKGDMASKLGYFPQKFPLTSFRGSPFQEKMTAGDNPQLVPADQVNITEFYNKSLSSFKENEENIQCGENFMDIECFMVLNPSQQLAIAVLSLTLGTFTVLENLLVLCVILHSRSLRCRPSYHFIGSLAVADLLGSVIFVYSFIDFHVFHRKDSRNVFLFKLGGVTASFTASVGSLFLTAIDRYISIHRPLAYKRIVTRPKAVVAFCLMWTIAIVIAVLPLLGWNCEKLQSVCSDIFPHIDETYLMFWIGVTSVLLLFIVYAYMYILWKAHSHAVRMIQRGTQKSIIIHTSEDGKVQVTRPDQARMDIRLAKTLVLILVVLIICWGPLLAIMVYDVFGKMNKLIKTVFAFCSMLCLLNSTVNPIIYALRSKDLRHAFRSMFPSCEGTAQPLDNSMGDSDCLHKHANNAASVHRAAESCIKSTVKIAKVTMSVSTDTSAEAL

Row | Structure (SMILES) | microsomal stability % remanent [1] | microsomal CLint [1] | half-life [1] | microsomal stability % remanent [2] | microsomal CLint [2] | half-life [2] | protective effect against neurite shortening ([3]; 1 nM) | protective effect against neurite shortening ([3]; 10 nM to 1 μM) | neuroprotective effect in presence of CB2R antagonist SR144528 [3] | solubility at 4 h [4] | EC50 [5] | Emax [5] | functional selectivity ratio [5]
1 | NC(=O)[C@@H]1CCCCN1C(=O)c1cn(CC2CCCCC2)c2ccccc12 [18e] | 15.9% | 67.3 µL/min/mg | 19.4 min | 22.3% | 54.3 µL/min/mg | 21.8 min | neither compound produced a statistically significant effect | significant concentration-dependent protective effect | reversed | 40.1 µM (≈ 14.7 µg/mL) | – | – | –
2 | NC(=O)[C@@H]1CCCCN1C(=O)c1nn(Cc2ccc(F)cc2)c2ccccc12 [18o] | 59.6% | 11.8 µL/min/mg | 50.9 min | 28.4% | 26.1 µL/min/mg | 28 min | neither compound produced a statistically significant effect | significant concentration-dependent protective effect | reversed | 43.7 µM (≈ 16.6 µg/mL) | 1070 ± 57 nM | 36% | > 1780
3 | NC(=O)[C@H]1CCCCN1C(=O)c1nn(Cc2ccc(F)cc2)c2ccccc12 [18p] | – | – | – | – | – | – | – | – | – | – | 755 ± 31 nM | 45% | 111
